Data as given in patent US8846752B2, “Isoflavone fatty acid ester derivatives, preparation method and pharmaceutical uses thereof” (China Pharmaceutical University, priority 2010, dated 2014).

Legend:
High Fat Diet Rats = assay: Losing weight and depressing blood fat in high-fat diet SD rats; format: in vivo; conditions: intragastric once a day for a month, compounds 25 mg/kg, sibutramine 1.0 mg/kg, mean ± SD, n = 10
Method: 1. Activity Determination of Losing Weight and Depressing Blood Fat of SD Rats
The experiment refers to the methods in Experimental Methodology of Pharmacology compiled by Xu Shuyun et al, People's Medical Publishing House 2002: 1189-1201, which is slightly modified.
SD rates (weight 80 g-100 g, male, clean grade) are randomly divided into the following groups according to the weight:
Blank control group (normal diet group); model control group (high-fat diet group); sibutramine, 1.0 mg/kg; Group I-1, 25 mg/kg; Group I-2, 25 mg/kg; Group I-3, 25 mg/kg; Group II-1, 25 mg/kg; Group II-2, 25 mg/kg; Group II-3, 25 mg/kg.
Except the blank control group, the other groups are fed with high-fat diet for two months. In the third month, all groups are required for intragastric administration and the blank control group and model control group are given appropriate volume of excipients once a day for a consecutive month. After the administration, exsanguinate and kill the rats, take femoral arterial blood and separate the plasma, and then measure the parameters according to the unified operating procedures in the kit instructions. Remove the fat around abdominal cavity and reproductive organs, weigh its wet weight and determine the body weight.

KM mice = assay: Acute toxicity test of KM mice; format: in vivo
Method: 3. Acute Toxicity Test of KM Mice
3.1 I-1 Acute Toxicity Test of Intragastric Administration (ig) for Mice
3.2 I-1 Acute Toxicity Test of Subcutaneous Injection (sc) for Mice
After sc I-1 2000 mg/kg of mice under the conditions of maximum administration capacity and maximum administration concentration, no mice die and the mice toxic symptoms express as decrease in spontaneous activities and often creeping lying without moving. After about 48 h, mice activities begin to increase. Compared with the control group, the weight gain in subsequent observation period is slower.

3T3-L1 cells [1] = assay: Oil red staining colorimetric experiment (preadipocyte differentiation); format: cell-based; conditions: 8th day of differentiation, 2nd day of administration; FIG. 2 and FIG. 3
Method: 4.1.2 Oil Red Staining Colorimetric Experiment
4.1.2.1 Culture 3T3-L1 cells in conventional medium and replace with differential medium I (DMEM culture solution containing 15% FBS, 0.4 mmol/L IBMX, 10 mg/L insulin and 1 μmol/L DEX) 2 d after the cells are completely merged (0 d of differentiation) for culture for 2 d. In the second day of differentiation, replace with differential medium II (DMEM culture solution containing 15% FBS and 10 mg/L insulin) to culture cells. In the 6th day of differentiation and later, replace with corresponding DMEM culture solution containing series I compounds. The control group is the complete culture solution without drugs.
4.1.2.2. Oil Red O Staining
In the 8th day of differentiation, discard the culture solution in the holes, wash with PBS for twice and add the solution containing 10% methanal to fix cells for 2 h. Wash with PBS for twice and stain with 0.5% oil red for 2 h. Wash with PBS for three times, dry at 37, add isopropanol, extract for 10 min and measure the absorbance value of the extract liquor at 492 nm.

PPARγ2-mRNA = assay: RT-PCR of PPARγ2-mRNA expression in 3T3-L1 cells; format: cell-based; conditions: during differentiation of preadipocyte 3T3-L1; GAPDH internal reference; FIG. 4
Method: 4.1.3 Reverse Transcription
Polymerase chain reaction (RT-PCR) experiment Extract the total RNA of fully differentiated 3T3-L1 cells to be reversely transcribed into cDNA. The primers are designed as follows:
• The length of the target product is 567 bp.
• The length of the target product is 424 bp.
PCR amplification conditions: initial denaturation at 94 for 5 min, then denaturize at 94 for 30 s, anneal at 57 for 40 s, and extend at 72 for 50 s, a total of 30 cycles. Finally extend at 72 for 10 min. Then conduct electrophoresis analysis with 1.5% agarose gel. GAPDH is used as the internal reference to alleviate the error between different samples. Compare the optical density of objective band with the optical density of amplified GAPDH band for analysis.

3T3-L1 cells [2] = assay: Cell proliferation determination with MTT method; format: cell-based; conditions: 25, 50, 100 and 200 μmol/L, 2 d; P<0.05 vs blank group; FIG. 1
Method: 4.1.1 Cell Proliferation Determination Experiment with MTT Method
Inoculate 3T3-L1 cells in 96-hole cell culture plate. After 2 d of conventional culture, replace with DMEM culture solutions with different concentrations (25, 50, 100 and 200 μmol/L) of Series I compounds. The control group is the culture solution containing 0.1% (V/V) ethanol (96%). 3 complex holes are set for each concentration in each group, processing 2 d. Discard the culture solution in the holes and add 20 μL MTT solution in each hole and culture at 37 for 4 h. Then discard the solution in the hole, add 100 μL DMSO solution in each hole, shake thoroughly and measure the absorbance (A) immediately in the enzyme-linked immunosorbent assay. The wavelength is measured to be 570 nm.

[3] = tested on: high fat and high sugar model ICR mice; assay: Losing weight, depressing blood fat and regulating blood sugar balance in high fat and high sugar ICR mice; format: in vivo; parameters: Serum insulin concentration INS: unit not given here; conditions: n = 10, x ± s; for Celiac total fat / Epididymal fat / MDA (serum oxidative damage indicator) / Mesenteric fat / Perirenal fat / SOD (serum oxidative damage indicator) / Serum insulin concentration INS / Subcutaneous fat / FFA / HDL-C / LDL-C / TC / TG: 50 mg/kg intragastric for 30 days; for Body weight 1 week after / Body weight 2 weeks after / Body weight 3 weeks after / Body weight before administration: high fat and high sugar model; for Body weight 1 week after / Body weight 2 weeks after / Body weight 3 weeks after: 50 mg/kg intragastric daily; for Body weight before administration: baseline before 50 mg/kg intragastric; for FFA / HDL-C / LDL-C / TC / TG: serum
From the text: 2. Activity Determination of Losing Weight, Depressing Blood Fat and Regulating Blood Sugar Balance of ICR Mice
The experiment refers to the methods of Raquel Ferrer-Lorente et al (European Journal of Pharmacology, 2005, 513: 243-248), which are slightly modified.
Take 40 ICR mice (male, weight 13-15 g) and randomly divide them into two large groups according to their weight, a normal diet group (n=10) and a high fat and high sugar model group (n=30); give normal diet to the normal diet group and conduct subcutaneous injection of physiological saline each day; give high-fat and high-sugar diet to the high fat and high sugar model group and conduct subcutaneous injection of insulin (0.5 U/kg) each day. The food is not restricted. Measure the food regularly each day, weigh the weight once a week and feed 7 consecutive weeks.
7 weeks after modeling, the normal diet group is unchanged and the high fat and high sugar model group is divided into model control group (n=10), I-1 administration group (n=10) and I-2 administration group (n=10). The feed of each group is unchanged. The administration group is given corresponding compounds with the dose of 50 mg/kg and the blank group is given the equal volume of blank solvent. Conduct intragastric administration on each group for consecutive 30 days. Weigh 12 h after fasting after last administration, take the eyeballs for blood, prepare serum, determine the blood fat (triglyceride TG, free fatty acid FFA, total cholesterol TC, low density lipoprotein cholesterol LDL-C and high density lipoprotein cholesterol HDL-C) content and blood insulin content and detect the oxidative damage indicators in the blood (malondialdehyde MAD and superoxide dismutase SOD). Take off the cervical vertebrae to kill the rats, separate the perirenal, testicular, mesenteric and inguinal (subcutaneous) white adipose tissue, wash clean with cold physiological saline and dry with filter paper, and then weigh.

[4] = cited from earlier work

## CC(C)CC(N(C)C)C1(c2ccc(Cl)cc2)CCC1 (centres unmarked) [Sibutramine, reference compound]
High Fat Diet Rats
  Fat index: 4.3 ± 1.7 g/100 g
  Free fatty acid FFA: 609.6 ± 138.3 µmol/L
  Total cholesterol TC: 1.32 ± 0.29 mmol/L
  Triglyceride TG: 0.97 ± 0.31 mmol/L
  Weight after administration: 301 ± 41 g

## CCCCCCCC/C=C\CCCCCCCC(=O)Oc1ccc2c(=O)c(-c3ccc(OC)cc3)coc2c1 [I-1, 4′-methoxy-7-O-oleoyl daizeol]
KM mice; intragastric administration (ig)
  LD50: 2163.8 mg/kg
KM mice; subcutaneous injection (sc) 2000 mg/kg, maximum administration capacity and concentration
  Mortality: no mice die
3T3-L1 cells [1]
  Adipose differentiation of 3T3-L1 cells (oil red stained lipid droplets): lipid droplets are significantly decreased
PPARγ2-mRNA
  PPARγ2-mRNA expression quantity: increased
3T3-L1 cells [2]
  Proliferation of preadipocyte 3T3-L1 (MTT, OD value): significant inhibition action
High Fat Diet Rats
  Fat index: 5.0 ± 1.6 g/100 g
  Free fatty acid FFA: 606.7 ± 144.7 µmol/L
  Total cholesterol TC: 1.31 ± 0.27 mmol/L
  Triglyceride TG: 0.91 ± 0.22 mmol/L
  Weight after administration: 309 ± 36 g
[3]
  Celiac total fat: 0.595 ± 0.172 g
  Epididymal fat: 0.382 ± 0.230 g
  MDA (serum oxidative damage indicator): 0.810 ± 0.162 nmol/L
  Mesenteric fat: 0.135 ± 0.047 g
  Perirenal fat: 0.078 ± 0.050 g
  SOD (serum oxidative damage indicator): 382.3 ± 200.9 U/ml
  Serum insulin concentration INS: 20.26 ± 2.69
  Subcutaneous fat: 0.136 ± 0.065 g
  Body weight 1 week after: 39.1 ± 5.2 g
  Body weight 2 weeks after: 33.8 ± 3.7 g
  Body weight 3 weeks after: 31.5 ± 2.0 g
  Body weight before administration: 41.8 ± 5.7 g
  FFA: 0.55 ± 0.14 mmol/L
  HDL-C: 1.70 ± 0.53 mmol/L
  LDL-C: 1.068 ± 0.636 mmol/L
  TC: 2.79 ± 0.39 mmol/L
  TG: 0.97 ± 0.21 mmol/L

## CCCCCCCCCCCCCCCC(=O)Oc1ccc2c(=O)c(-c3ccc(OC)cc3)coc2c1 [I-4, 4′-methoxy-7-O-palmityl daizeol]
PPARγ2-mRNA
  PPARγ2-mRNA expression quantity: significantly decreased

## CCCCCCCCCCCCCCCCCC(=O)Oc1ccc(-c2coc3cc(OC)ccc3c2=O)cc1 [II-3, 7-methoxy-4′-O-stearoyl daizeol]
High Fat Diet Rats
  Fat index: 6.0 ± 2.1 g/100 g
  Free fatty acid FFA: 738.1 ± 196.0 µmol/L
  Total cholesterol TC: 1.71 ± 0.34 mmol/L
  Triglyceride TG: 1.35 ± 0.35 mmol/L
  Weight after administration: 352 ± 47 g

## CCCCCCCC/C=C\CCCCCCCC(=O)Oc1ccc(-c2coc3cc(OC)ccc3c2=O)cc1 [II-1, 7-methoxy-4′-O-oleoyl daizeol]
High Fat Diet Rats
  Fat index: 5.6 ± 1.6 g/100 g
  Free fatty acid FFA: 696.3 ± 205.4 µmol/L
  Total cholesterol TC: 1.65 ± 0.25 mmol/L
  Triglyceride TG: 1.01 ± 0.24 mmol/L
  Weight after administration: 328 ± 32 g

## CCCCCCCCCCCCCCCCCC(=O)Oc1ccc2c(=O)c(-c3ccc(OC)cc3)coc2c1 [I-3, 4′-methoxy-7-O-stearoyl daizeol]
PPARγ2-mRNA
  PPARγ2-mRNA expression quantity: significantly decreased
High Fat Diet Rats
  Fat index: 5.4 ± 1.2 g/100 g
  Free fatty acid FFA: 730.2 ± 186.0 µmol/L
  Total cholesterol TC: 1.57 ± 0.30 mmol/L
  Triglyceride TG: 1.19 ± 0.30 mmol/L
  Weight after administration: 320 ± 34 g

## CCCCC/C=C\C/C=C\CCCCCCCC(=O)Oc1ccc2c(=O)c(-c3ccc(OC)cc3)coc2c1 [I-2, 4′-methoxy-7-O-linoleoyl daizeol]
PPARγ2-mRNA
  PPARγ2-mRNA expression quantity: increased
High Fat Diet Rats
  Fat index: 4.3 ± 1.5 g/100 g
  Free fatty acid FFA: 603.8 ± 163.5 µmol/L
  Total cholesterol TC: 1.28 ± 0.26 mmol/L
  Triglyceride TG: 0.99 ± 0.21 mmol/L
  Weight after administration: 307 ± 32 g
[3]
  Celiac total fat: 0.329 ± 0.403 g
  Epididymal fat: 0.212 ± 0.239 g
  MDA (serum oxidative damage indicator): 1.288 ± 0.145 nmol/L
  Mesenteric fat: 0.058 ± 0.101 g
  Perirenal fat: 0.059 ± 0.057 g
  SOD (serum oxidative damage indicator): 424.1 ± 192.8 U/ml
  Serum insulin concentration INS: 22.32 ± 6.39
  Subcutaneous fat: 0.099 ± 0.071 g
  Body weight 1 week after: 39.1 ± 4.1 g
  Body weight 2 weeks after: 32.9 ± 5.7 g
  Body weight 3 weeks after: 29.5 ± 2.3 g
  Body weight before administration: 42.0 ± 4.4 g
  FFA: 0.43 ± 0.04 mmol/L
  HDL-C: 1.56 ± 0.29 mmol/L
  LDL-C: 0.880 ± 0.655 mmol/L
  TC: 3.18 ± 0.46 mmol/L
  TG: 0.71 ± 0.22 mmol/L

## CCCCC/C=C\C/C=C\CCCCCCCC(=O)Oc1ccc(-c2coc3cc(OC)ccc3c2=O)cc1 [II-2, 7-methoxy-4′-O-linoleoyl daizeol]
High Fat Diet Rats
  Fat index: 5.1 ± 1.3 g/100 g
  Free fatty acid FFA: 658.8 ± 201.2 µmol/L
  Total cholesterol TC: 1.67 ± 0.23 mmol/L
  Triglyceride TG: 1.03 ± 0.21 mmol/L
  Weight after administration: 318 ± 28 g

## CCCCCCCC/C=C\CCCCCCCC(=O)Oc1ccc2c(c1)CC[C@@H]1[C@@H]2CC[C@]2(C)C(=O)CC[C@@H]12 [OE, Oleoyl-estrone]
[4]; intravenous injection
  Half-life: 4.17 min
[4]; oral administration
  Fraction absorbed in estrone water-soluble ester: 12%
  Fraction absorbed in free estrone form: 17%
